Test results published in US20250346588A1, “IMIDAZOPYRIDINE AND OXAZOLOPYRIDINE DERIVATIVES AND ANALOGS THEREOF, METHODS OF PREPARATION THEREOF, METHODS OF HIF-1/2A PATHWAY INHIBITION, AND INDUCTION OF FERROPTOSIS” (KUDA THERAPEUTICS, INC., priority 2022, published 2025).

Columns and labels:
786-0 cells = assay: Resazurin cell viability assay, with or without DFO and other inhibitors; format: cell-based, human
Protocol: (§1) Screens for inhibitory activity of compounds described herein were performed using 786-0 ccRCC cells that stably express HRE-Luc: 5 copies of the hypoxia-responsive element (HRE) fused to the pGL3 luciferase reporter (Promega Corp, Madison WI). 786-0 cells are pVHL deficient and thus constitutively express HIF-2α independently of cellular oxygen tension. Since 786-0 cells lack HIF-1α, HRE-driven luciferase activity is primarily HIF-2α driven, and has been previously validated. Cells were maintained at log phase growth in […] (DMEM) with 10% FBS in a humidified incubator at 37° C. with 5% CO2. For screening assays, cells were seeded at a density of 4,000 cells in 50 μl of complete media/well in quadruplicate wells/point in a 96-well plate. After 24 h, 50 μl of a 2× concentration of test compound was added to each well. Compounds were diluted from a 5-10 mM stock in DMSO and final concentrations of DMSO in each well in controls and treated wells were kept constant at ≤0.6% DMSO. After 24 h treatment, luciferase activity was measured using the Steady-Glo Luciferase assay system (Promega Corp) according to the manufacturer's protocol. Cell viability was measured in quadruplicate parallel wells using resazurin as recommended by the manufacturer (R&D systems, Minneapolis, MN). Data for luciferase and resazurin were normalized to DMSO treated controls (defining 100%) and wells containing assay reagent but no cells (defining 0%) and graphed using the log inhibitor versus normalized response option in Graphpad Prism 9.3.1 software. Representative data determined using Steady-Glo luciferase and resazurin are shown in FIGS. 1A and 1B respectively, with error bars showing SD. Filled diamonds, empty squares and empty triangles indicate treatment with 3, 8 and 22 respectively with results for HRE-Luc shown in FIG. 1A.
In view of the increased cellular iron concentrations induced by the compounds described herein, the involvement of iron in mediating cell death was determined. Cell viability assays were performed as described in Example 2 using resazurin as a cell viability readout and performed in the absence or presence of 100 μM of the iron chelator, DFO (D9533, MilliporeSigma, St Louis, MO). […] Viability IC50 values are shown in brackets.

Bioavailability studies = format: in vivo; details: mouse, in vivo, Swiss albino mice
HIF-1α and HIF-2α = assay: Western blots for HIF-1α and HIF-2α in ccRCC cells; format: cell-based, human; details: 786-0 or RCC10 ccRCC cells, 24h, relative to GAPDH
Protocol: Western blots were performed to determine the effects of the compounds on levels of HIF-2α and other relevant proteins, whereas qPCR was performed to determine the effects of compounds on transcript levels of HIF target genes. 786-0 or RCC10 cells were plated at 1×10E5 cells/well in 2 ml DMEM with 10% FBS/well in 6-well tissue culture plates. Cells were allowed to adhere overnight in a humidified incubator at 37° C. with 5% CO2, after which the appropriate concentrations of compounds in DMSO were added. DMSO concentrations were kept constant in all wells. After 24 h exposure to the compounds, cells were lysed and subjected to western blotting according to standard protocols. Antibodies for HIF-1α and HIF-2α and GAPDH were purchased from Cell Signaling Technology (Danvers, MA), whereas antibodies to IRP2 and pVHL were from Santa Cruz Biotechnology (Dallas, TX), and GPX4 antibody was from R&D Systems, Inc (Minneapolis, MN). Representative data in FIG. 2 show a dose-dependent effect of compounds in decreasing HIF-1/2α. Compounds also impact cellular iron sensing given by increased IRP2, which taken together indicate that cells sense decreased amounts of available iron, which triggers the iron starvation response initiated by IRP2 stabilization. Representative data shown in FIG. 3D show a dose dependent effect of the compounds on GPX4, which may indicate decreased resistance to ferroptosis. […] The data also show increased expression of ISCA2 with pVHL re-expression.

[1] = system: HIF target genes VEGFA and POU5F1; assay: qPCR of HIF target genes; format: cell-based, human; details: FIG. 2C
Protocol: For qPCR, cells seeded as described above were harvested for RNA isolation using the RNA Clean and Concentrator kit (Zymo Research, Irvine CA) according to the manufacturer's protocol. cDNA was prepared using the High Capacity […] kit from Thermo Fisher Scientific (Waltham, […]). qRT-PCR was performed using pre-designed Taqman Gene Expression assay primer/probes and master mix (Thermo Fisher Scientific) according to the manufacturer's protocol using the QuantStudio 3 Real-Time PCR System (ThermoFisher). Relative changes in gene expression normalized to the control gene, […] was determined using the ΔΔCt method.

[2] = system: HIF-2α Iron-Responsive Element (IRE); assay: HIF-2α IRE-Luc reporter assay; format: cell-based, human; details: 786-0 cells stably expressing HIF-2α IRE-Luc, 24h
Protocol: as §1, with “Compounds were diluted from a 5-10 mM stock in DMSO and final concentrations of DMSO in each well in controls and treated wells were kept constant at ≤0.6% DMSO.” left out, “Data for luciferase and resazurin were normalized to DMSO treated controls (defining 100%) and wells containing assay reagent but no cells (defining 0%) and graphed using the log inhibitor versus normalized response option in Graphpad Prism 9.3.1 software.” left out, “Filled diamonds, empty squares and empty triangles indicate treatment with 3, 8 and 22 respectively with results for HRE-Luc shown in FIG. 1A.” left out

786-0 ccRCC cells = assay: ICP-MS of cellular iron, zinc and copper; format: cell-based, human; details: 786-0 cells, 2.5 μM compound
Protocol: These studies were performed to determine the content of iron and other transition metals in cells after exposure the compounds described herein. 786-0 cells were seeded at 1.5 million cells/flask in T75 cm^2 flasks in DMEM+10% FBS, and allowed to adhere overnight. Cells were then treated with indicated concentrations of compounds in DMSO or DMSO alone (vehicle) for a further 24 h, after which cells were detached by trypsinization, counted, washed twice in phosphate-buffered saline (PBS) and pelleted. Experiments were performed using three replicate T75 cm^2 flasks per condition. A 5:1 mixture of nitric acid (OPTIMA Grade, 70%, Fisher Scientific) and ultrapure hydrogen peroxide (ULTREX II, 30%, Fisher Scientific) was added to cell pellets. This mixture was allowed to digest overnight, heated until dry, and resuspended in 2% nitric acid for analysis using an Agilent 7900 ICP-MS (Agilent Technologies, Santa Clara, CA). Calibration standard solutions for determination of Fe were prepared from Agilent multi-element calibration standard-2A. An Agilent Environmental Calibration Standard was used as an independent control. PBS-only control digestions were used to measure background. Metal readings were normalized to cell number. Data obtained from these studies for three replicate readings (with SEM) are shown in FIG. 3, which show an increase in cellular iron (Fe) content after treatment with indicated compounds.

[3] = system: RCC4 or 786-0 cells±pVHL re-expression; assay: Cell viability with pVHL re-expression; format: cell-based, human; details: 48h
[4] = system: RCC10 or 786-0 cells with stable overexpression of empty vector or ISCA2; assay: Cell viability with ISCA2 overexpression; format: cell-based, human; details: 24h

- bioavailability (Bioavailability studies; oral, read-out: Bioavailability F): 27.3%
- half-life (Bioavailability studies; read-out: half-life (converted)): 3.61 h
Compound: COc1ccc(-c2nnc(Nc3nc4c(OC)nccc4[nH]3)o2)cc1OC [Compound 26HCL, N-(4-Methoxy-1H-imidazo[4,5-c]pyridin-2-yl)-5-(3,4-dimethoxyphenyl)-1,3,4-oxadiazol-2-amine]
- mechanism of cell death (786-0 cells; 24h, co-treatment with DFO, NAC, liproxstatin or ZVAD-FMK): iron-oxidant dependent and apoptosis/caspase-independent mechanism of cell death
- effect of DFO co-treatment on compound-mediated loss of cell viability (786-0 cells; DFO 100 μM, FIG. 4B): protective effects of DFO
- effect on HIF-1α and HIF-2α protein (Western blot) (HIF-1α and HIF-2α): decreases HIF-1α and HIF-2α
- effect on transcription of HIF target genes (VEGFA, POU5F1) [1]: decrease transcription of HIF target genes
- effect on IRE-luciferase reporter activity normalized to resazurin [2]: decrease IRE-mediated translation of HIF-2α
- cellular iron (Fe), zinc (Zn) and copper (Cu) content (786-0 ccRCC cells): increases the content of iron, zinc and copper in cells
- effect of pVHL re-expression on cell viability response to compound [3]: re-expression of pVHL promotes resistance
- effect of ISCA2 overexpression on cell viability response to compound [4]: ISCA2 overexpression promotes resistance
